Source: patent US8778966B2, “Quinolinone derivatives as PARP and tank inhibitors” (Janssen Pharmaceutica, NV, priority 2007, dated 2014)

Experiments:
[1] = molecular target: T1, Human PARP-1 enzyme (Homo sapiens, UniProt P09874); assay: In vitro Scintillation Proximity Assay (SPA) for PARP-1 inhibitory activity; assay type: biochemical; details: for IC50: read-out: in vitro SPA assay PARP-1 pIC50 (converted)
T1 construct: purchased Trevigen
Method in brief: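 SPA assay: nicked-DNA-activated PARP-1 (0.1–0.2 μg/ml) ADP-ribosylates biotinylated histones (2 μg/ml) using [3H]-NAD+, 20 min at RT in Tris pH 8/DTT/MgCl2, stopped with 2 mM NAD+. Blank-subtracted cpm expressed as % control; IC50 by linear interpolation, reported as pIC50 (10−5 to 3×10−9 M tested).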

[2] = system: HCT116 cells; assay: Antiproliferative activity, Alamar Blue assay, HCT116 cells; assay type: cell-based, human; set-up: key to HCT116 antiproliferative activity pIC50: pIC50 = -log IC50 (IC50: conc. reducing growth to 50% of control); details: for IC50: Homo sapiens, HCT-116, HCT116 cells, read-out: HCT116 antiproliferative activity pIC50 (converted)
Experimental: Human colon carcinoma HCT116 cells obtained from the ATCC were cultured in McCoy's 5 A medium supplemented with 2 mM L-Glutamine, 50 μg/ml gentamicin and 10% heat inactivated fetal calf serum.
Resazurin was purchased from Aldrich (Prod. No. 199303). Potassium ferrocyanide, potassium ferricyanide, KH2PO4 and K2HPO4 were purchased from Sigma (Prod. Nos. P9387, P8131, P5655 and P8281, respectively).
Potassium Phosphate Buffer 0.1 M (PPB) was made as follows: 2.72 gram KH2PO4 and 13.86 gram K2HPO4 were dissolved in 500 ml milli-Q H2O, the pH was adjusted to pH 7.4 and the volume was brought to 1 litre with milli-Q H2O; the buffer was filter sterilised and stored at room temperature. Resazurin stock solution (PPB-A) was prepared fresh by dissolving 45 mg resazurin in 15 ml PBS. 30 mM potassium ferricyanide (PPB-B) was prepared by dissolving 0.987 gram potassium ferricyanide in 100 ml PPB. 30 mM potassium ferrocyanide (PPB-C) was prepared by dissolving 1.266 gram potassium ferrocyanide in 100 ml PPB.
Mixture of PPB-A, PPB-B and PPB-C was prepared by mixing equal volumes of the respective solutions. Resazurin work solution (herein termed “Alamar Blue” solution) was prepared by diluting said mixture 20×(vol/vol) in PPB and filter sterilising; the Alamar Blue solution could be kept at 4° C. for a maximum of 2 weeks.
For experiments in 384 wells plates the cells were seeded at a density of 4.5×10^3 cells/ml in Falcon 384-well culture plates (Life Technologies, Merelbeke, Belgium), black with clear bottom, in 45 μl culture medium. Cells were allowed to adhere to plastic for 24 hr. The tested compound was pre-diluted (1/50 in culture medium) and 5 μl pre-diluted compound was added to the wells. Following 4-day incubation, 10 μl of the Alamar Blue solution was added to each well and the cells were further incubated for 4 hrs (HCT116) or 24 hrs (PC-3) at 37° C. The fluorescence intensity was measured for each well on a Fluorescence plate reader (Fluorskan, Labsystems, 540 nm excitation and 590 nm emission)
The antiproliferative activity was calculated as percentage of remaining viable cells in treated versus control (untreated cells) conditions. Within an experiment, the result for each experimental condition is the mean of 3 replicate wells. When appropriate, the experiments were repeated to establish full concentration-response curves. When appropriate, IC50-values (concentration of the drug, needed to reduce cell growth to 50% of the control) were computed using probit analysis for graded data (Finney, D. J., Probit Analyses, 2nd Ed. Chapter 10, Graded Responses, Cambridge University Press, Cambridge 1962). Herein the effects of test compounds are expressed as pIC50 (the negative log value of the IC50-value) (see Table 2).

T1 sequence (P09874 whole entry): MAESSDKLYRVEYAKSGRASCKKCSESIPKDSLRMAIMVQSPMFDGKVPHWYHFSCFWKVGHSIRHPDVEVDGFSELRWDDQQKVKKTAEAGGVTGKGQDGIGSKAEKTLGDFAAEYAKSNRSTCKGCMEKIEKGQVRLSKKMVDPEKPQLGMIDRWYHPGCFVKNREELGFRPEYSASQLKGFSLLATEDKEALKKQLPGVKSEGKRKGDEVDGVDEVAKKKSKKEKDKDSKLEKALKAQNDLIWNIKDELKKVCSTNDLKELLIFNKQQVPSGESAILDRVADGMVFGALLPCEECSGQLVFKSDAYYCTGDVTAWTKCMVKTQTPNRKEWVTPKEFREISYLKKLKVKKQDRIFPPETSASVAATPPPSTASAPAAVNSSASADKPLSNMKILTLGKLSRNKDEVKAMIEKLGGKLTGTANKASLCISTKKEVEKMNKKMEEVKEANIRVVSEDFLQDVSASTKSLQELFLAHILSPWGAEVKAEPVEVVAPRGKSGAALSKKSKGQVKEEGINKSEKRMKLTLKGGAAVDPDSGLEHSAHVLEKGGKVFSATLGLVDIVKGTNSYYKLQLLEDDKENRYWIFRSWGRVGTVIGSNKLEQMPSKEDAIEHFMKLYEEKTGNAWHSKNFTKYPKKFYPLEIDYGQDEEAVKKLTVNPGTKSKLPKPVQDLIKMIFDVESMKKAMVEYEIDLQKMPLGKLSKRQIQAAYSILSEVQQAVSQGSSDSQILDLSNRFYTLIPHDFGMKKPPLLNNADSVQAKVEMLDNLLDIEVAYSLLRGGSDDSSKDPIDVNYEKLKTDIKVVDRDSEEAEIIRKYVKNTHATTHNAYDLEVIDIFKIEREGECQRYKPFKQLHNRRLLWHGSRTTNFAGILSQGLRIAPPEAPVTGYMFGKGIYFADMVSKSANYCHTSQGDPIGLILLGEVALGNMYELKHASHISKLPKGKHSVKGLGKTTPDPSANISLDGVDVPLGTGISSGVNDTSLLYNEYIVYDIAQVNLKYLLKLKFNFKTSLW

Compound | IC50 [1] | IC50 [2] | in vitro SPA assay PARP-1 pIC50 [1] | HCT116 antiproliferative activity pIC50 ([2]; HCT116 cells)
C#Cc1cccc(CC(C)(C#N)c2ccc3cc(CC)c(=O)[nH]c3c2)c1 (racemic) [Compound 168] | 0.631 µM | 0.0316 µM | – | –
CCc1cc2ccc(C(C)(C#N)CC3COc4ccccc4O3)cc2[nH]c1=O (single isomer, unassigned) [Compound 48] | – | – | 6.4 | 5.8
CCc1cc2ccc([C@@](C)(C#N)CCOc3ccccc3)cc2[nH]c1=O (single isomer, unassigned) [Compound 150] | 0.501 µM | 0.794 µM | – | –
Cc1cc2ccc([C@@](C)(C#N)CCOc3ccccc3)cc2[nH]c1=O (single isomer, unassigned) [Compound 164] | 1.58 µM | 1 µM | – | –
CCc1cc2ccc(C(C)(C#N)Cc3cccc(C(=O)O)c3)cc2[nH]c1=O (stereo not drawn) [Compound 10] | 0.0794 µM | > 10 µM | – | –
CCc1cc2ccc(C(C)(C#N)Cc3cccc(-c4nc(C)no4)c3)cc2[nH]c1=O (stereo not drawn) [Compound 11] | 0.631 µM | 1.58 µM | – | –
CCc1cc2ccc(C(C)(C#N)Cc3cccc(C(=O)OC)c3)cc2[nH]c1=O (stereo not drawn) [Compound 12] | 0.501 µM | 0.0316 µM | – | –
CCc1cc2ccc(C(C)(C#N)Cc3cccc(C(=O)NC)c3)cc2[nH]c1=O (stereo not drawn) [Compound 13] | 0.398 µM | 7.94 µM | – | –
CCc1cc2ccc(C(C)(C#N)Cc3cccc(NS(C)(=O)=O)c3)cc2[nH]c1=O (stereo not drawn) [Compound 14] | 0.398 µM | > 10 µM | – | –
CCc1cc2ccc(C(C)(C#N)Cc3cccc(N)c3)cc2[nH]c1=O (stereo not drawn) [Compound 15] | 0.316 µM | 1 µM | – | –
CCc1cc2ccc(C(C)(C#N)Cc3cccc(NC(=O)N4CCOCC4)c3)cc2[nH]c1=O (stereo not drawn) [Compound 16] | 0.158 µM | > 10 µM | – | –
CCc1cc2ccc(C(C)(C#N)Cc3ccccc3Br)cc2[nH]c1=O (stereo not drawn) [Compound 104] | 0.631 µM | 0.398 µM | – | –
CCc1cc2ccc(C(C)(C#N)Cc3ccccc3C)cc2[nH]c1=O (stereo not drawn) [Compound 105] | 0.794 µM | 0.251 µM | – | –
CCc1cc2ccc(C(C)(C#N)Cc3ccccc3F)cc2[nH]c1=O (stereo not drawn) [Compound 106] | 0.398 µM | 0.398 µM | – | –
CCc1cc2ccc(C(C)(C#N)Cc3cccc(C)c3)cc2[nH]c1=O (stereo not drawn) [Compound 107] | 0.251 µM | 0.2 µM | – | –
CCc1cc2ccc(C(C)(C#N)Cc3ccc(C(F)(F)F)cc3)cc2[nH]c1=O (stereo not drawn) [Compound 108] | 1.26 µM | 6.31 µM | – | –
CCc1cc2ccc(C(C)(C#N)Cc3cccc(C(F)(F)F)c3)cc2[nH]c1=O (stereo not drawn) [Compound 109] | 0.794 µM | 0.251 µM | – | –
CCc1cc2ccc(C(C)(C#N)Cc3cccc(OC(F)(F)F)c3)cc2[nH]c1=O (stereo not drawn) [Compound 110] | 0.794 µM | 0.158 µM | – | –
CCc1cc2ccc(C(C)(C#N)Cc3ccc(C#N)cc3)cc2[nH]c1=O (stereo not drawn) [Compound 111] | 0.251 µM | 5.01 µM | – | –
CCc1cc2ccc(C(C)(C#N)Cc3cccc(F)c3)cc2[nH]c1=O (stereo not drawn) [Compound 112] | 0.2 µM | 0.316 µM | – | –
CCc1cc2ccc(C(C)(C#N)Cc3cccc(OC)c3)cc2[nH]c1=O (stereo not drawn) [Compound 113] | 0.251 µM | 0.398 µM | – | –
CCc1cc2ccc(C(C)(C#N)Cc3ccc(OC(F)(F)F)cc3)cc2[nH]c1=O (stereo not drawn) [Compound 114] | 1 µM | 1.58 µM | – | –
CCc1cc2ccc(C(C)(C#N)Cc3ccc(F)cc3)cc2[nH]c1=O (stereo not drawn) [Compound 115] | 0.316 µM | 0.631 µM | – | –

Compound | IC50 [1] | IC50 [2] | in vitro SPA assay PARP-1 pIC50 [1] | HCT116 antiproliferative activity pIC50 ([2]; HCT116 cells)
CCc1cc2ccc(C(C)(C#N)Cc3c(F)c(F)c(F)c(F)c3F)cc2[nH]c1=O (stereo not drawn) [Compound 116] | 1 µM | 0.631 µM | – | –
CCc1cc2ccc(C(C)(C#N)Cc3ccc(C)cc3)cc2[nH]c1=O (stereo not drawn) [Compound 117] | 0.398 µM | 2.51 µM | – | –
CCc1cc2ccc(C(C)(C#N)Cc3ccc(Br)cc3)cc2[nH]c1=O (stereo not drawn) [Compound 118] | 0.398 µM | 2 µM | – | –
CCc1cc2ccc(C(C)(C#N)Cc3ccc(OC)cc3)cc2[nH]c1=O (stereo not drawn) [Compound 119] | 0.316 µM | 2 µM | – | –
CCc1cc2ccc(C(C)(C#N)Cc3cccc(F)c3F)cc2[nH]c1=O (stereo not drawn) [Compound 120] | 0.631 µM | 0.251 µM | – | –
CCc1cc2ccc(C(C)(C#N)Cc3cccc(Cl)c3Cl)cc2[nH]c1=O (stereo not drawn) [Compound 121] | 1.58 µM | 0.158 µM | – | –
CCc1cc2ccc(C(C)(C#N)Cc3ccc4ccccc4c3)cc2[nH]c1=O (stereo not drawn) [Compound 122] | 1.26 µM | 0.251 µM | – | –
CCc1cc2ccc(C(C)(C#N)Cc3ccc4c(c3)nnn4C)cc2[nH]c1=O (stereo not drawn) [Compound 123] | 0.158 µM | 3.98 µM | – | –
CCc1cc2ccc(C(C)(C#N)Cc3ccc4c(c3)OCCO4)cc2[nH]c1=O (stereo not drawn) [Compound 124] | 0.501 µM | 0.501 µM | – | –
CCc1cc2ccc(C(C)(C#N)Cc3cc(C)cc(C)c3)cc2[nH]c1=O (stereo not drawn) [Compound 125] | 1 µM | 0.2 µM | – | –
CCc1cc2ccc(C(C)(C#N)Cc3cc(F)cc(Cl)c3)cc2[nH]c1=O (stereo not drawn) [Compound 126] | 0.794 µM | 0.2 µM | – | –
CCc1cc2ccc(C(C)(C#N)Cc3cc(F)cc(C(F)(F)F)c3)cc2[nH]c1=O (stereo not drawn) [Compound 127] | 1 µM | 0.501 µM | – | –
CCc1cc2ccc(C(C)(C#N)Cc3cc(F)cc(F)c3)cc2[nH]c1=O (stereo not drawn) [Compound 128] | 0.501 µM | 0.126 µM | – | –
CCc1cc2ccc(C(C)(C#N)Cc3cccc(S(C)(=O)=O)c3)cc2[nH]c1=O (stereo not drawn) [Compound 129] | 0.631 µM | 1.58 µM | – | –
CCc1cc2ccc(C(C)(C#N)Cc3cccc(Cl)c3F)cc2[nH]c1=O (stereo not drawn) [Compound 130] | 0.631 µM | 0.158 µM | – | –
CCc1cc2ccc(C(C)(C#N)Cc3cc(C(F)(F)F)cc(C(F)(F)F)c3)cc2[nH]c1=O (stereo not drawn) [Compound 131] | 1.58 µM | 6.31 µM | – | –
CCc1cc2ccc(C(C)(C#N)Cc3cccc(C)c3F)cc2[nH]c1=O (stereo not drawn) [Compound 132] | 1.26 µM | 0.398 µM | – | –
CCc1cc2ccc(C(C)(C#N)Cc3cc(Br)cc(Br)c3)cc2[nH]c1=O (stereo not drawn) [Compound 133] | 0.794 µM | 0.251 µM | – | –
CCc1cc2ccc(C(C)(C#N)Cc3cccc(C(F)(F)F)c3F)cc2[nH]c1=O (stereo not drawn) [Compound 134] | 1.26 µM | 0.501 µM | – | –
CCc1cc2ccc(C(C)(C#N)Cc3c(Cl)cccc3Cl)cc2[nH]c1=O (stereo not drawn) [Compound 135] | 1 µM | 0.316 µM | – | –
CCc1cc2ccc(C(C)(C#N)Cc3c(Cl)cccc3Br)cc2[nH]c1=O (stereo not drawn) [Compound 136] | 1.58 µM | 0.316 µM | – | –
CCc1cc2ccc(C(C)(C#N)Cc3ccc(F)cc3F)cc2[nH]c1=O (stereo not drawn) [Compound 137] | 1.26 µM | 0.251 µM | – | –
